Source: US11311015B2, “Herbicidal combination” (UPL LIMITED, priority 2018, dated 2022)

Test system: yellow nutsedge
Test: Field trial, post-emergence control of yellow nutsedge (Blacksburg, Va.)
Assay type: in vivo, Cyperus esculentus
Conditions: for Yellow nut sedge (Percentage weed cover), 05/07 / Yellow nut sedge (Percentage weed cover), 13/06 / Yellow nut sedge (Percentage weed cover), 20/6 / Yellow nut sedge (Percentage Control), 05/07 / Yellow nut sedge (Percentage Control), 13/06 / Yellow nut sedge (Percentage Control), 20/6: post-emergence field plots, dosage 1X single, 0.5X two-way; for Yellow nut sedge (Percentage weed cover), 05/07: rating date 05/07 (29 DAT), untreated 59; for Yellow nut sedge (Percentage weed cover), 05/07 / Yellow nut sedge (Percentage weed cover), 13/06 / Yellow nut sedge (Percentage weed cover), 20/6 / Yellow nut sedge (Percentage Control), 05/07 / Yellow nut sedge (Percentage Control), 20/6: 0.33X three-way; for Yellow nut sedge (Percentage weed cover), 13/06: rating date 13/06, untreated 50; for Yellow nut sedge (Percentage weed cover), 20/6: rating date 20/6, untreated 49; for Yellow nut sedge (Percentage Control), 05/07: trial initiated June 6, rating date 05/07 (29 DAT); for Yellow nut sedge (Percentage Control), 13/06: trial initiated June 6, rating date 13/06, 0.33X three-way (rates Table 2); for Yellow nut sedge (Percentage Control), 20/6: trial initiated June 6, rating date 20/6; for Burn down / residual control of sedges, result in words: speed of burn down, onset of plant necrosis
Procedure: An exemplary combination according to the invention was used for sedge and broadleaf weed control for agricultural crops, turf, ornamentals, and landscape. The exemplary combination was used for the post-emergence control of sedges, as well as the control/suppression of various broadleaf and grassy weeds.
A field trial was conducted to evaluate the effectiveness of the combinations of three active ingredients according to the invention when used post emergence, at different rates, compared to industry standards—stand alone and 2 way mixture of compounds for efficacy of yellow nutsedge. The active ingredient combination used in the trial was bentazon+halosulfuron+sulfentrazone. The trial was conducted in Blacksburg, Va. and was initiated on June 6 under Protocol #BRLM-62-US-VA-18-10-BTC. The plots were in fallow area primarily covered with yellow nutsedge and tall fescue, and were sprayed at 4 week intervals. (2 applications total). The application dosages of the herbicides, when used in isolation and when used in the combinations were as follows: […]

Compound	Yellow nut sedge (Percentage weed cover), 05/07 [%]	Yellow nut sedge (Percentage weed cover), 13/06 [%]	Yellow nut sedge (Percentage weed cover), 20/6 [%]	Yellow nut sedge (Percentage Control), 05/07 [%]	Yellow nut sedge (Percentage Control), 13/06 [%]	Yellow nut sedge (Percentage Control), 20/6 [%]	Burn down / residual control of sedges, result in words	Weed control of yellow nutsedge, result in words (post-emergence field trial, compared to individual products and 2 way mixes)
COC(=O)c1c(Cl)nn(C)c1S(=O)(=O)NC(=O)Nc1nc(OC)cc(OC)n1 [Halosulfuron, Halosulfuron-methyl]	8	50	16	81	36	60	delayed response of up to four weeks before plant necrosis began	
Cc1nn(-c2cc(NS(C)(=O)=O)c(Cl)cc2Cl)c(=O)n1C(F)F [Sulfentrazone]	9	44	11	75	58	73	fairly rapid burn down of some of the sedges	
CC(C)N1C(=O)c2ccccc2NS1(=O)=O [Bentazone]	10	40	8	76	65	75	fairly rapid burn down of some of the sedges	did not provide sufficient weed control
